Measurements taken from publication PMC5917010, “Structural basis for GPR40 allosteric agonism and incretin stimulation” (Nature Communications, 2018).
pEC50, pKi: −log10 of the molar value.

Legend:
C57Bl/6 mice = experiment: Incretin secretion assay in C57Bl/6 mice; format: in vivo, mouse; settings: for plasma PYY level: Fig. 3e; for plasma total GLP-1: wild type C57BL/6 mice
Method: Nine week old male C57Bl/6 mice (Envigo, Indianapolis) were used. The night before the incretin assay, mice were transferred to clean cages and fasted overnight. On the morning of the assay, the mice were weighed and randomized by block randomization into groups based on body weight (N = 6) so each group had similar mean and standard deviation of body weight. […] Animals were dosed with vehicle or the test article by oral gavage. Group allocations were not blinded from the experimenters who collected the data. The mice were sacrificed at 0.5, 1, 2, 4, or 8 h post the compound treatment. Blood was taken by cardiac puncture into EDTA tubes containing DPPIV inhibitor and aprotinin cocktail after CO2 euthanization. The final DPPIV inhibitor concentration was 50 µM and aprotinin was 250 K IU/mL. Blood samples were centrifuged at 3000×g for 5 min and plasma transferred into 96 well plates. Plasma total GLP-1 and active GIP levels were measured by ELISA assays that were developed in-house. Data were expressed as mean±s.e.m. […] Cook’s distance was also calculated from linear regression. All animals were included in the analysis with their individual Cook’s distance < 1. Significance is denoted at p < 0.05.

GFP = experiment: cAMP accumulation assay, GFP control
Method: HEK293 cells transiently transfected with Promega’s cAMP response element (CRE/luc2P) and a GPR40 construct were plated (40K cells/well) into 96-well microtiter plates using Dulbecco’s Modified Eagle’s Medium (DMEM) supplemented with 10% FBS, 20 mM HEPES, pH 7.4, 100 U/mL Penicillin, 100 µg/mL Streptomycin, and 800 µg/mL Geneticin. Test compounds were serially diluted three-fold in 100% DMSO and immediately diluted in media. […] EC50 values were calculated using a four-parameter logistic curve fitting equation.

Mouse GPR120 = target: T1, Mouse GPR120 (Mus musculus, UniProt Q7TMA4); experiment: Mouse GPR120 b-arrestin; format: cell-based; settings: Supplementary Table 1
T1 sequence (Q7TMA4 1-361): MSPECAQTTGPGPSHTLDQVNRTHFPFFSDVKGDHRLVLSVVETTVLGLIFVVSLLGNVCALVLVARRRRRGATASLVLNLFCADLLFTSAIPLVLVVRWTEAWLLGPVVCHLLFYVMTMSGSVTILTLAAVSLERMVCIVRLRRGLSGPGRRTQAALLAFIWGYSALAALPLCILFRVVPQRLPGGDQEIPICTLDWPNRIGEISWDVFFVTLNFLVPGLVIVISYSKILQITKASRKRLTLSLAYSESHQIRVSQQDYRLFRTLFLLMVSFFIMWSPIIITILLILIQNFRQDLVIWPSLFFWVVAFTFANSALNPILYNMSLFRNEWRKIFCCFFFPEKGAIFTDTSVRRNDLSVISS

Human GPR120 [1] = target: T2, Human GPR120 (Homo sapiens, UniProt Q5NUL3); experiment: Human GPR120 binding; settings: Supplementary Table 1
T2 sequence (Q5NUL3 1-361): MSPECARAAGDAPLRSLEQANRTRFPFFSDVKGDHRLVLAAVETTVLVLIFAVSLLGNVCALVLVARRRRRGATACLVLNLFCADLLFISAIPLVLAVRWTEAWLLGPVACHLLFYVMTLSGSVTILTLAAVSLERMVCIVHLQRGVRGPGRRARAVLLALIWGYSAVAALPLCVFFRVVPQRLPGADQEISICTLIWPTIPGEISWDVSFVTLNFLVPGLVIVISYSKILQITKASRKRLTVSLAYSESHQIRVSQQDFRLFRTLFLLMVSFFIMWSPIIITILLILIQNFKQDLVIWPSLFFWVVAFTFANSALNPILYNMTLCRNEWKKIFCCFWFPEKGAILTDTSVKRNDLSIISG

human PPARalpha = target: T3, human PPARalpha (Homo sapiens, UniProt Q07869); experiment: human PPARalpha binding; settings: Supplementary Table 1
T3 sequence (Q07869 1-468): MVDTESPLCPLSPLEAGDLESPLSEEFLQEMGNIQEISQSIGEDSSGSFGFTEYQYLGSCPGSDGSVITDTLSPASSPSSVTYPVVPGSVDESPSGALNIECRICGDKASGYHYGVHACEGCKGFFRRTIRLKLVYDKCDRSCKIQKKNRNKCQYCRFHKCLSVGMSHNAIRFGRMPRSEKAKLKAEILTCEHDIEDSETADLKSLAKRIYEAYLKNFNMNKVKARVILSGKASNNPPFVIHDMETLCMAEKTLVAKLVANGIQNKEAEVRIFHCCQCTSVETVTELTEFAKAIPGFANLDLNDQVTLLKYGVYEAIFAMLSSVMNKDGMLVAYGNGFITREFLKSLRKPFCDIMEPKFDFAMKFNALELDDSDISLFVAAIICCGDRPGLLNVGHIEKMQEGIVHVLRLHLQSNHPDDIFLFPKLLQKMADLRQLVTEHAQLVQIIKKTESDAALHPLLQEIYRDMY

human PPARgama = target: T4, human PPARgama (Homo sapiens, UniProt P37231); experiment: human PPARgamma binding; settings: Supplementary Table 1
T4 sequence (P37231 1-505): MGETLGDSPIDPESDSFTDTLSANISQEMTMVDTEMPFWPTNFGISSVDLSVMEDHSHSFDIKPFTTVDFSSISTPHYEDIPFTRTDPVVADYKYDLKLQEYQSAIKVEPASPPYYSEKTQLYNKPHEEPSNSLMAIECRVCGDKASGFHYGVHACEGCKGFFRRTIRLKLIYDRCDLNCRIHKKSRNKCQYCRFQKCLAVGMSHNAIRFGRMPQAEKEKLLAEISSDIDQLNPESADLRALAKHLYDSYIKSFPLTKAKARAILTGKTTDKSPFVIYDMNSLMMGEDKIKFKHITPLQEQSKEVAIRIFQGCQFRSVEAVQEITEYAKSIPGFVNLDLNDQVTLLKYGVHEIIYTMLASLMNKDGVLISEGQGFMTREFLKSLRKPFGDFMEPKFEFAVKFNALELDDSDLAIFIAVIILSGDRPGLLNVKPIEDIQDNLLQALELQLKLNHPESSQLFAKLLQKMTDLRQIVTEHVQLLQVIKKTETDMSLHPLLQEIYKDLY

Human GPR120 [2] = target: T2, Human GPR120; experiment: Human GPR120 Calcium (FLIPR); format: cell-based; settings: Supplementary Table 1
hRORalpha = hRORalpha (Homo sapiens, UniProt P35398); experiment: hRORalpha binding
Chain of hRORalpha (P35398 whole entry): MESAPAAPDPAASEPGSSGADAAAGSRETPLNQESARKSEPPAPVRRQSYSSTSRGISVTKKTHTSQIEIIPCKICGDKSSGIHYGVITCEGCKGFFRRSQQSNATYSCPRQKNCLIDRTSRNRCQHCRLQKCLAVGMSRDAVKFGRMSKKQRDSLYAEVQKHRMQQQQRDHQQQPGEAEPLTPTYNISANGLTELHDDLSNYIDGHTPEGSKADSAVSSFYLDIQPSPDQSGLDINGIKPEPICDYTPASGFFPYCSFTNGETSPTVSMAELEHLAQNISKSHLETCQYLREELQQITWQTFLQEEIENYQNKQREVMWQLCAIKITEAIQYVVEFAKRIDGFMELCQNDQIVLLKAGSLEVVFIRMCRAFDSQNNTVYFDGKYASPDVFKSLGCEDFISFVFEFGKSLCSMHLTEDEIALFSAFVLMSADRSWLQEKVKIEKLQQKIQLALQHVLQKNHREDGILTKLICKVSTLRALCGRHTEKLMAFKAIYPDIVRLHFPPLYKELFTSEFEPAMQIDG

hGLUCR = hGLUCR (Homo sapiens, UniProt P47871); experiment: hGLUCR binding
Chain of hGLUCR (P47871 26-477): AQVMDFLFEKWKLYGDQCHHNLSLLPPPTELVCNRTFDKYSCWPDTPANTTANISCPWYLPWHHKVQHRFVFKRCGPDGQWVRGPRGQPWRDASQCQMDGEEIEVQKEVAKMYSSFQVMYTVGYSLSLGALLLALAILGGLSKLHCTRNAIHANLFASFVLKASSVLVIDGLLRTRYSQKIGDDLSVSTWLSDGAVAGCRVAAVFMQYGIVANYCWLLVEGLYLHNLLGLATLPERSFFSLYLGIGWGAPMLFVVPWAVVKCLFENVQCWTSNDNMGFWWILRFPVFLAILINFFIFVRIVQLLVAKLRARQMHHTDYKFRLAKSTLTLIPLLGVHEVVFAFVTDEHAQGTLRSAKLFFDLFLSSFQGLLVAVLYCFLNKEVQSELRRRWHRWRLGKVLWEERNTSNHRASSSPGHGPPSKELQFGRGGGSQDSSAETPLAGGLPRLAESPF

Row | Compound | plasma PYY level (C57Bl/6 mice) | plasma active GIP concentrations (C57Bl/6 mice; oral gavage, up to 8 h) | plasma total GLP-1 concentrations (C57Bl/6 mice; oral gavage, up to 8 h) | plasma total GLP-1 (C57Bl/6 mice; oral treatment at 10 mg/kg, 4-hour window) | pEC50 (GFP; Homo sapiens, read-out: cAMP accumulation EC50, GFP) | pEC50 (Mouse GPR120) | pKi (Human GPR120 [1]) | pKi (human PPARalpha) | pKi (human PPARgama) | pEC50 (Human GPR120 [2]) | pKi (hRORalpha) | pKi (hGLUCR) | plasma total GLP-1 (C57Bl/6 mice; oral treatment at 30 mg/kg) | cAMP accumulation EC50, GFP (GFP; GFP control, Fig. 6c,d)
1 | COc1ccc(C(=O)N(CC(C)(C)C)c2cccc(C)n2)c(N2CCC(c3cc4ccc([C@@H](CC(=O)O)C5CC5)cc4o3)CC2)c1 [compound 1] | no effect on plasma PYY level | significantly increases plasma active GIP concentrations up to 8 h | significantly increases plasma total GLP-1 concentrations up to 8 h | sustains an elevated level of plasma total GLP-1 | < 4.52 | < 4.30 | < 4.00 | < 5.00 | < 5.00 | < 4.30 | < 4.70 | < 5.00 | – | –
2 | Cc1cc(OCCCS(C)(=O)=O)cc(C)c1-c1cccc(COc2ccc3c(c2)OC[C@H]3CC(=O)O)c1 [TAK-875] | no effect on plasma PYY level | – | – | – | – | < 4.30 | < 4.00 | < 5.00 | < 5.00 | < 4.30 | – | – | no effect on plasma total GLP-1 | no fit
